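Each compound was tested at five concentrations against cells in 96-well plates for 48 hours. Here, GI50 denotes the concentration required for 50% inhibition of growth.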 Calls of active or inactive are those of the source. Cut-off read from the data, not from the text of the source: active = GI50 up to about 1.1 µM and inactive = higher.
Legend:
Assay in all cases: inhibition of tumour cell growth, NCI panel, 48 h
CCRF-CEM = tested on: CCRF-CEM
HCT-116 = tested on: HCT-116
HL-60 = tested on: HL-60
HT-29 = tested on: HT-29
IGROV-1 = tested on: IGROV-1
LXFL 529 = tested on: LXFL 529
M14 = tested on: M14
NCI-H226 = tested on: NCI-H226
NCI-H23 = tested on: NCI-H23
NCI-H460 = tested on: NCI-H460
NCI-H522 = tested on: NCI-H522
OVCAR-8 = tested on: OVCAR-8
SK-MEL-28 = tested on: SK-MEL-28
SK-MEL-5 = tested on: SK-MEL-5
SW-620 = tested on: SW-620
TK-10 = tested on: TK-10
HCC 2998 = tested on: HCC 2998
OVCAR-5 = tested on: OVCAR-5

Measured: GI50

N#CC(N)(C(=O)CCC(=O)Nc1cccc(Cl)c1)c1ccc(Cl)cc1 (stereo not drawn)
inactive: CCRF-CEM > 100 µM | HCT-116 > 100 µM | HL-60 > 100 µM | HT-29 > 100 µM | IGROV-1 > 100 µM | LXFL 529 > 100 µM | M14 > 100 µM | NCI-H226 > 100 µM | NCI-H23 > 100 µM | NCI-H460 > 100 µM | NCI-H522 > 100 µM | OVCAR-8 > 100 µM | SK-MEL-28 > 100 µM | SK-MEL-5 > 100 µM | SW-620 > 100 µM | TK-10 > 100 µM

CCOc1ccc2c(c1)[n+]([O-])c(-c1ccccc1)c(N)[n+]2[O-]
inactive: CCRF-CEM 50.7 µM | HCC 2998 68.5 µM | HL-60 37 µM | HT-29 > 100 µM | IGROV-1 82.6 µM | LXFL 529 46.6 µM | M14 81.5 µM | NCI-H226 > 100 µM | NCI-H23 29.9 µM | NCI-H460 51.6 µM | NCI-H522 16.8 µM | OVCAR-5 > 100 µM | OVCAR-8 78.5 µM | SK-MEL-28 33.1 µM | SK-MEL-5 24.3 µM | SW-620 > 100 µM | TK-10 > 100 µM

CCOP(=O)(OCC)C1CC(C)OC1=O (stereo not drawn)
inactive: CCRF-CEM > 100 µM | HCC 2998 > 100 µM | HCT-116 > 100 µM | HL-60 > 100 µM | HT-29 > 100 µM | IGROV-1 > 100 µM | LXFL 529 > 100 µM | M14 > 100 µM | NCI-H23 > 100 µM | NCI-H460 > 100 µM | OVCAR-5 > 100 µM | OVCAR-8 > 100 µM | SK-MEL-28 > 100 µM | SK-MEL-5 > 100 µM | SW-620 > 100 µM | TK-10 > 100 µM

CCCCCCCCCCCCN(O)C(=O)c1ccccc1
inactive: CCRF-CEM 3.82 µM | HCC 2998 30.3 µM | HCT-116 42 µM | HL-60 19.1 µM | HT-29 39.4 µM | IGROV-1 37.8 µM | LXFL 529 30.5 µM | M14 21.2 µM | NCI-H23 14.9 µM | NCI-H460 > 10 µM | NCI-H522 25.6 µM | OVCAR-5 21.5 µM | OVCAR-8 18.9 µM | SK-MEL-28 36.8 µM | SK-MEL-5 > 10 µM | SW-620 34 µM | TK-10 46.5 µM

O=C(N/N=C/c1cc(-c2ccccc2Cl)c(-c2ccccc2Cl)o1)c1ccncc1
inactive: HCT-116 > 100 µM | HL-60 89.7 µM | HT-29 80.5 µM | IGROV-1 > 100 µM | LXFL 529 96.6 µM | M14 > 100 µM | NCI-H226 > 100 µM | NCI-H23 > 100 µM | NCI-H522 83.6 µM | OVCAR-5 > 100 µM | SK-MEL-28 > 100 µM | SW-620 > 100 µM | TK-10 > 100 µM

Clc1ccc(C2=NN(c3ccccc3)C3c4cc(Br)ccc4OCC23)cc1 (stereo not drawn)
inactive: CCRF-CEM 61.9 µM | HCC 2998 > 100 µM | HCT-116 18.6 µM | HL-60 40.8 µM | HT-29 66.7 µM | IGROV-1 > 100 µM | LXFL 529 72.1 µM | NCI-H23 86.9 µM | NCI-H460 > 100 µM | NCI-H522 > 100 µM | OVCAR-5 > 100 µM | OVCAR-8 > 100 µM | SK-MEL-28 > 100 µM | SK-MEL-5 59.7 µM | SW-620 > 100 µM | TK-10 > 100 µM

CCC1(C)NN=c2s/c(=C/c3ccc(OC)cc3)c(=O)n2N1 (stereo not drawn)
inactive: CCRF-CEM > 100 µM | HCC 2998 > 100 µM | HCT-116 > 100 µM | HT-29 > 100 µM | IGROV-1 > 100 µM | LXFL 529 > 100 µM | M14 > 100 µM | NCI-H226 > 100 µM | NCI-H23 > 100 µM | NCI-H460 > 100 µM | NCI-H522 > 100 µM | OVCAR-5 > 100 µM | OVCAR-8 > 100 µM | SK-MEL-28 > 100 µM | SK-MEL-5 > 100 µM | SW-620 > 100 µM | TK-10 > 100 µM

CCCN(CCC)CCc1cc(C(C)=O)n(S(=O)(=O)c2ccc(C)cc2)c1
inactive: CCRF-CEM > 100 µM | HCC 2998 > 100 µM | HCT-116 > 100 µM | HT-29 45.6 µM | IGROV-1 > 100 µM | LXFL 529 > 100 µM | M14 20.3 µM | NCI-H226 > 100 µM | NCI-H23 > 100 µM | NCI-H460 > 100 µM | NCI-H522 > 100 µM | OVCAR-5 > 100 µM | OVCAR-8 > 100 µM | SK-MEL-28 > 100 µM | SK-MEL-5 41.4 µM | SW-620 > 100 µM | TK-10 > 100 µM

CC(=O)Nc1ccc(C2CC(c3ccc([N+](=O)[O-])cc3)=Nc3ccccc3[S+]2[O-])cc1 (stereo not drawn)
inactive: CCRF-CEM 11.4 µM | HCC 2998 16.3 µM | HL-60 17.6 µM | HT-29 22.6 µM | IGROV-1 12.7 µM | LXFL 529 16.7 µM | M14 27.9 µM | NCI-H226 20.4 µM | NCI-H23 21.5 µM | NCI-H460 23.3 µM | NCI-H522 17.3 µM | OVCAR-5 50.6 µM | OVCAR-8 30.5 µM | SK-MEL-28 19.6 µM | SK-MEL-5 19.6 µM | SW-620 20 µM | TK-10 28.8 µM

COc1ccc(CC2=NCCc3cc(OC)c(OC)cc32)cc1Br
inactive: CCRF-CEM 12.4 µM | HCC 2998 14.1 µM | HL-60 3.1 µM | HT-29 3.18 µM | IGROV-1 > 10 µM | LXFL 529 7.36 µM | NCI-H226 4.38 µM | NCI-H23 8.69 µM | NCI-H460 6.19 µM | NCI-H522 12 µM | OVCAR-5 1.99 µM | OVCAR-8 20.7 µM | SK-MEL-28 19.8 µM | SK-MEL-5 12.5 µM | SW-620 7.52 µM | TK-10 50 µM

O=c1c2cccc3cccc(c4n1CCN=4)c32
inactive: CCRF-CEM 80.2 µM | HCT-116 57.8 µM | HL-60 56.8 µM | HT-29 > 100 µM | IGROV-1 82.6 µM | LXFL 529 > 100 µM | M14 73.1 µM | NCI-H226 56.8 µM | NCI-H23 > 100 µM | NCI-H460 61.1 µM | NCI-H522 84.3 µM | OVCAR-5 > 100 µM | OVCAR-8 > 100 µM | SK-MEL-28 > 100 µM | SK-MEL-5 > 100 µM | SW-620 > 100 µM | TK-10 17.5 µM

O=S1(=O)NN=C(NCc2ccc(Cl)c(Cl)c2)c2ccccc21
inactive: CCRF-CEM 9.16 µM | HCC 2998 > 100 µM | HCT-116 > 100 µM | HL-60 26.5 µM | HT-29 53.8 µM | IGROV-1 > 100 µM | LXFL 529 42.2 µM | M14 > 100 µM | NCI-H226 > 100 µM | NCI-H460 95.3 µM | OVCAR-5 > 100 µM | OVCAR-8 > 100 µM | SK-MEL-5 86.9 µM | SW-620 91.2 µM

Reference: ChEMBL document CHEMBL1201862, “PubChem BioAssay data set” (2004)
